Experimental data published in patent publication US8951527B2, “Radioprotectants targeting thrombospondin-1 and CD47” (The United States of America, as represented by the …, priority 2008, dated 2015).
Entries after “also recorded” stand apart in the source; their conditions may differ.

Key:
HUVEC = HUVEC cell viability after irradiation (MTT / CellTiter 96); assay type: cell-based, human
Description: FIG. 11. Radioprotective activities of TSP1 and CD47 antibodies, a CD47 binding peptide from TSP1, and a CD47 morpholino. HUVEC were plated on 96-well plates in standard growth medium. Cells were treated with TSP1 (FIG. 11A) or CD47 (FIG. 11B) monoclonal antibodies (clone A6.1 or B6H12, respectively) and received the indicated doses of radiation 24 hours after addition of the antibodies. Cell (mitochondrial) viability was measured 48 hours post irradiation using an MTT assay. Cells were treated using peptide 7N3 (FIG. 11C) and control peptide 604 (FIG. 11D), subjected to the same experimental conditions, and assayed via MTT. […] Experiments were repeated 3 times and results presented as the mean±SD.
FIG. 12. Peptides 7N3 and C6d are radioprotective to HUVEC in culture. Human umbilical vein endothelial cells (HUVEC) grown in EGM medium in 96-well plates were treated with graded doses of a peptide agent, as indicated. One hour later, cells were exposed to a single dose of gamma radiation (0, 10, 20, 30, and 40 Gray) and allowed to incubate 72 hours at 37° C. Cell viability was determined with the CellTiter 96 AQueous One Solution Cell Proliferation Assay.
Cell Viability Assay. HUVEC were plated at a density of 5000 cells/well in 96 well plates (Nunc), and were treated 24 hours later with either the indicated doses of a CD47 antibody (B6H12), a TSP1 antibody (A6.1), the CD47-binding peptide 7N3, or control peptide 604. One hour later the cells were exposed to a single dose of gamma radiation (0, 10, 20, 30, and 40 Gy) and allowed to incubate another 72 hours at 37° C. Experiments done with B16E10 melanoma cells in Example 4 were done in a similar manner treating either 1 hour prior to a single dose of radiation (10 Gy) with peptide 7N3 or 48 hours prior with CD47 morpholino. Cell viability was determined using the CellTiter 96 Aqueous One Solution cell proliferation assay (Promega, Madison, Wis.) as per the manufacturer's instructions and absorbance at 490 nm was determined using an MR580 Microelisa AutoReader (Dynatech, Alexandria, Va.). The same assay was performed on HUVEC using either the CD47 or CD36 morpholino, but 48 hours were allowed to pass prior to radiation (0 or 40 Gy) to allow for suppression of the target proteins. Similarly, control experiments were performed using the nitric oxide synthase (NOS) inhibitor L-NAME, a membrane permeable cGMP analogue, 8-Bromo cGMP, or the NO donor DETA/NO.
In an additional experiment to test the effect of radioprotective peptides, human umbilical vein endothelial cells (HUVEC) grown in EGM medium in 96-well plates were treated with graded doses of a peptide agent, as indicated. One hour later, cells were exposed to a single dose of gamma radiation (0, 10, 20, 30, and 40 Gray) and allowed to incubate 72 hours at 37° C. Cell viability was determined with the CellTiter 96 AQueous One Solution Cell Proliferation Assay.

SCC VII = SCC VII squamous cell carcinoma tumor growth after irradiation in C3H mice; assay type: in vivo, mouse; conditions: IP morpholino 48 hours before irradiation
Description: FIG. 19. CD47 suppression enhances re-growth delay in irradiated syngeneic B16 melanoma and squamous cell carcinoma tumors but increases radioresistance of B16 cells in vitro. C57BL/6 mice were injected with 1×10^6 B16 mouse melanoma cells into their right hindlimbs. Five days later, the mice were randomized into 4 groups (12 mice in each group) where they either received injections of CD47 morpholino (10 μM) in sterile PBS, PBS, or no injection. The two groups receiving injections were then subjected to radiation (10 Gy) to the effected hindlimb 48 hours later. The other two groups served as controls and consisted of tumor alone or tumor subjected to only the morpholino. Tumors were followed post-radiation for 30 days, measuring their volume every 6 days (FIG. 19A). Results are presented as the mean±SD of 12 mice in each treatment group and are representative of 3 independent studies. […] Cell (mitochondrial) viability was measured 48 hours post radiation using the MTT assay.
FIG. 20. […] Tumor growth was assessed as above. […]
In other experiments, C3H mice were injected in the right hindlimb with either 1.5×10^5 SCC VII cells, and tumors were allowed to establish for 1 week. […] The mice were observed and tumor size determined two to three times a week by the same individual until lesion size necessitated animal euthanasia.

B16F10 melanoma tumors = experiment: Syngeneic B16F10 melanoma tumor growth after irradiation; assay type: in vivo, mouse; conditions: B16F10 in C57BL/6 mice
Description: FIG. 19. CD47 suppression enhances re-growth delay in irradiated syngeneic B16 melanoma and squamous cell carcinoma tumors but increases radioresistance of B16 cells in vitro. C57BL/6 mice were injected with 1×10^6 B16 mouse melanoma cells into their right hindlimbs. Five days later, the mice were randomized into 4 groups (12 mice in each group) where they either received injections of CD47 morpholino (10 μM) in sterile PBS, PBS, or no injection. The two groups receiving injections were then subjected to radiation (10 Gy) to the effected hindlimb 48 hours later. The other two groups served as controls and consisted of tumor alone or tumor subjected to only the morpholino. Tumors were followed post-radiation for 30 days, measuring their volume every 6 days (FIG. 19A). Results are presented as the mean±SD of 12 mice in each treatment group and are representative of 3 independent studies. These same experimental treatment conditions were tested using another syngeneic tumor cell line (SCC VII) in C3H mice and followed for 15 days where similar results were found after injecting 1.5×10^5 cells (FIG. 19B). Results are presented as the mean±SD of 10 mice (C3II) in each treatment group and are representative of 3 independent studies. B16 mouse melanoma cells were plated on 96-well plates in standard growth medium. Cells were treated with peptide 7N3 or CD47 morpholino and received a radiation dose of 10 Gy (FIG. 19C; *p<0.05, #p<0.01). Cell (mitochondrial) viability was measured 48 hours post radiation using the MTT assay.
Tumor Establishment and Irradiation. C57 B16 mice were injected in the right hindlimb with 1×10^6 B16F10 melanoma cells, and tumors were allowed to establish for 1 week. After tumor incorporation, the hind limbs were treated with either the CD47 morpholino or sterile phosphate buffered saline (PBS). Forty-eight hours later, all mice were subjected to right hind limb irradiation (10 Gy). The mice were observed and tumor size determined twice a week by the same individual until lesion size necessitated animal euthanasia. […]

CGTCACAGGCAGGACCCACTGCCCA (all phosphorodiamidate morpholino (PMO)) [CD47 morpholino, CD47 targeting morpholino oligonucleotide]
cell survival of irradiated HUVEC with L-NAME co-incubation (HUVEC; co-incubation of L-NAME and CD47 morpholino ± radiation (FIG. 22C)): enhancing cell survival
cell viability post radiation after morpholino pretreatment (HUVEC; morpholino 48 hours before radiation (FIG. 11E, F)): granted protection against cell death; also recorded: resistant to radiation-driven cell death
tumor growth delay, intraperitoneal versus local administration (SCC VII): as effective as local delivery; also recorded: equivalent delay in tumor growth
tumor ablation / re-growth delay with irradiation (B16F10 melanoma tumors; morpholino 48 hours before 10 Gy): dramatically increased tumor ablation
tumor growth without irradiation (B16F10 melanoma tumors; morpholino alone): only slightly delayed tumor growth
normal tissue injury in tumor-bearing irradiated limbs (B16F10 melanoma tumors; morpholino then 10 Gy): minimal alopecia and no other morphologic or histologic evidence of tissue injury
